This is an account of results in article PMC10544018 (Journal of Medicinal Chemistry, 2023).

SMILES strings stand for the structures.

One series has as its target T1, VCB protein (Homo sapiens, UniProt P40337).
T1 construct: A plasmid containing pVHL54–213 with an N-terminal His6 tag; His6 (N, cleaved yes); made in house; host or cells: Escherichia coli BL21 (DE3)
The experiment in a line: Competitive fluorescence polarization (FP) binding assay, displacement of FAM-labeled HIF-1α peptide. The conditions noted are these: for Kd: dissociation constant, determined by FP, mean ± S.E.M., back-calculated from IC50; for IC50: mean IC50 values obtained from the FP assay, read-out: IC50 ± S.E.M, FP assay. Here is the method:
Binding of a ligand to the HIF binding site of VHL displaces a fluorescein-labeled, 19-mer HIF-1α oligopeptide, leading to a change in polarization of emitted light upon excitation of the competing fluorescent probe.
All components were dissolved from stock solutions using 100 mM Bis–Tris, 100 mM NaCl, 1 mM DTT, pH 7.0, to yield a final assay volume of 15 μL. DMSO was added as appropriate to ensure a final concentration of 2% (v/v). Control wells containing VCB and JC9 with no compound (zero displacement), or JC9, in the absence of protein (maximum displacement) were also included to allow for normalization. Percentage displacement values were obtained by normalization of controls and were plotted against log[compound]. The IC50 values were determined for each titration using non-linear regression analysis with Prism GraphPad (Table S1). Dissociation constants Kd for the compound–VCB interaction were back-calculated from the measured IC50 values by using a displacement binding model as described.[16],[64]

Another series deals with T2, biotinylated VCB protein (Homo sapiens, UniProt P40337).
T2 construct: A plasmid containing pVHL54–213 with an N-terminal His6 tag; His6 (N, cleaved yes); made in house; host or cells: Escherichia coli BL21 (DE3)
Briefly: Surface plasmon resonance (SPR) direct binding assay. To be noted: dissociation constant, determined by SPR; mean ± S.E.M. from two independent repeats. The method, then: Biotinylated VCB protein was immobilized onto a streptavidin-functionalized sensor chip allowing real-time measurements of the changes in the refractive index upon binding of ligands to the protein.[20]
To perform SPR measurements, 10 mM stock solution of VHL inhibitors was diluted 100-fold in DMSO to achieve a 100 μM final stock concentration. The ligand stock solution was diluted in SPR buffer (20 mM HEPES, 150 mM NaCl, 1 mM TCEP, 0.005% Tween 20, pH 7.0) to obtain the final concentration of 2% (v/v) DMSO. […] The experiments were performed at 20 °C on a Biacore T100 (GE Healthcare, Biacore, Uppsala, Sweden) equipped with a streptavidin-functionalized sensor chip (Series S Sensor Chip SA, Cytiva). The system was flushed with running buffer (20 mM HEPES, 150 mM NaCl, 1 mM TCEP, 0.005% Tween 20, and 2% DMSO, pH 7.0). Biotinylated VCB protein (50 nM) was immobilized onto the sensor chip at 10 μL/min for using the automated wizard in the T200 control software to reach the required immobilization levels. The solutions were injected individually using 60 and 160 s association and dissociation times, respectively. Reference flow-cell response was subtracted from the sample response with immobilized VCB protein to correct for systematic noise and baseline drift. Data were solvent-corrected by an eight-point solvent correction, and the response from the blank injections was used to double-reference the binding data. For the determination of binding constants, processed kinetic data were fitted to a 1:1 interaction model using the Biacore Insight Evaluation Software (version 3.0.12.15655).

The nature of series [1]: Log D7.4 measurement by chromatographic method. In kind it is physicochemical. The conditions noted are these: experimental distribution coefficient at pH 7.4; read-out: e log D7.4. The method, then:
(§1) Both were experimentally obtained employing HPLC-based protocols.[39],[40] […] PPB values were determined in view of how they could impact future pharmacokinetic studies of compounds as VHL inhibitors, or once conjugated into bifunctional PROTACs, for which PPB can be a limiting factor.
The determination of the log D7.4 values was performed by a chromatographic method as described previously.[41],[62] […] Subsequently, the mean retention times (n = 2) of the analytes were taken to calculate their log D7.4 values.

For another series, the target named is human serum albumin (Homo sapiens, UniProt P02768). The experiment in a line: PPB studies on HSA HPLC column. In kind it is in vitro ADME. To be noted: CHIRALPAK HSA HPLC column (human serum albumin); experimentally determined percentage of the compound bound to human serum albumin. The method, then:
as §1
PPB was estimated by correlating the logarithmic retention times of the analytes on a […] HSA 50 × 3 mm, 5 μm column with the literature-known % PPB values (converted into log K values) of the following drugs: warfarin, ketoprofen, budesonide, nizatidine, indomethacin, acetylsalicylic acid, carbamazepine, piroxicam, nicardipine, and cimetidine.[63] Samples were dissolved in MeCN/DMSO 9:1 to achieve a final concentration of 0.5 mg/mL. The mobile phase A was 50 mM ammonium acetate adjusted to pH 7.4 with 10% NaOH, while mobile phase B was iPrOH. […] After injecting 3 μL of the sample, a linear gradient from 100% A to 30% iPrOH in 5.4 min was applied. From 5.4 to 18 min, 30% iPrOH was kept, followed by switching back to 100% A in 1.0 min and a re-equilibration time of 6 min.

As to `Cc1ncsc1-c1ccc(CNC(=O)[C@@H]2C[C@@H](O)CN2C(=O)[C@@H](NC(=O)C2(F)CC2)C(C)(C)C)cc1F` [Compound 27, (2S,4R)-N-(3-Fluoro-4-(4-methylthiazol-5-yl)benzyl)-1-((S)-2-(1-fluorocyclopropane-1-carboxamido)-3,3-dimethylbutanoyl)-4-hydroxypyrrolidine-2-carboxamide], the Kd at VCB protein was 162 ± 45 nM; on biotinylated VCB protein, 66 ± 3 nM. Moreover, the IC50 at VCB protein came out at 617 ± 117 nM. Further, the chromatographic logD in series [1] turned out to be 2.1. The compound further had a fraction unbound at 0.5 mg/mL on human serum albumin of 0.12.
Consider `Cc1cc(-c2scnc2C)c(F)cc1[C@H](C)NC(=O)[C@@H]1C[C@@H](O)CN1C(=O)[C@@H](NC(=O)C1(F)CC1)C(C)(C)C` [Compound 32, (2S,4R)-N-((S)-1-(5-Fluoro-2-methyl-4-(4-methylthiazol-5-yl)phenyl)ethyl)-1-((S)-2-(1-fluorocyclopropane-1-carboxamido)-3,3-dimethylbutanoyl)-4-hydroxypyrrolidine-2-carboxamide], for which, on VCB protein, the Kd is 53 ± 7 nM and the IC50 came to 220 ± 33 nM. Binding on biotinylated VCB protein was put at a Kd of 41 ± 1 nM. Besides, in series [1], the chromatographic logD was determined as 2.5. Besides, at human serum albumin, the unbound share (fraction unbound) at 0.5 mg/mL is 0.11.
As for `Cc1ncsc1-c1ccc([C@H](C)NC(=O)[C@@H]2C[C@@H](O)CN2C(=O)[C@@H](NC(=O)C2(F)CC2)C(C)(C)C)cc1F` [Compound 31, (2S,4R)-N-((S)-1-(3-Fluoro-4-(4-methylthiazol-5-yl)phenyl)ethyl)-1-((S)-2-(1-fluorocyclopropane-1-carboxamido)-3,3-dimethylbutanoyl)-4-hydroxypyrrolidine-2-carboxamide], on VCB protein, the Kd is 73 ± 19 nM and the IC50 worked out at 291 ± 61 nM. On biotinylated VCB protein, this compound returned a dissociation constant (Kd) of 45 ± 6 nM. The chromatographic logD in series [1] was 2.3. Moreover, the fraction unbound at 0.5 mg/mL on human serum albumin was 0.12.
On to `Cc1cc(-c2scnc2C)ccc1CNC(=O)[C@@H]1C[C@@H](O)CN1C(=O)[C@@H](NC(=O)C1(F)CC1)C(C)(C)C` [Compound 26, (2S,4R)-1-((S)-2-(1-Fluorocyclopropane-1-carboxamido)-3,3-dimethylbutanoyl)-4-hydroxy-N-(2-methyl-4-(4-methylthiazol-5-yl)benzyl)pyrrolidine-2-carboxamide], for which, at VCB protein, the Kd is 112 ± 29 nM and the IC50 came to 426 ± 72 nM. At biotinylated VCB protein, this compound gave a Kd of 41 ± 10 nM. Also, the chromatographic logD in series [1] worked out at 2.2. At human serum albumin, the fraction unbound at 0.5 mg/mL is 0.11.
For the compound `Cc1ncsc1-c1ccc(CNC(=O)[C@@H]2C[C@@H](O)CN2C(=O)[C@@H](NC(=O)C2(C#N)CC2)C(C)(C)C)c(C)c1C` [Compound 18, (2S,4R)-1-((S)-2-(1-Cyanocyclopropane-1-carboxamido)-3,3-dimethylbutanoyl)-N-(2,3-dimethyl-4-(4-methylthiazol-5-yl)benzyl)-4-hydroxypyrrolidine-2-carboxamide], on VCB protein, the equilibrium dissociation constant (Kd) is 322 ± 38 nM and the concentration for half-maximal inhibition (IC50) was determined as 1650 ± 100 nM. The chromatographic logD in series [1] was 2.3. For the same compound, the free fraction (fraction unbound) at 0.5 mg/mL on human serum albumin was 0.09.
Consider `COc1cc(-c2scnc2C)cc(OC)c1CNC(=O)[C@@H]1C[C@@H](O)CN1C(=O)[C@@H](NC(=O)C1(C#N)CC1)C(C)(C)C` [Compound 11, (2S,4R)-1-((S)-2-(1-Cyanocyclopropane-1-carboxamido)-3,3-dimethylbutanoyl)-N-(2,6-dimethoxy-4-(4-methylthiazol-5-yl)benzyl)-4-hydroxypyrrolidine-2-carboxamide], for which, at VCB protein, the Kd was 6240 ± 620 nM and the IC50 is 32100 ± 2150 nM. For the same compound, in series [1], the chromatographic logD came out at 2. The compound further gave a fraction unbound at 0.5 mg/mL on human serum albumin of 0.12.
